Assay results reported in ChEMBL document CHEMBL4028802, “DILIrank: the largest reference drug list ranked by the risk for developing drug-induced liver injury in humans” (Drug Discov Today, 2016).

What was measured:
[1] = species on record: Homo sapiens; test: Liver toxicity in human assessed as induction of drug-induced liver injury by measuring verified drug-induced liver injury concern status
[2] = species on record: Homo sapiens; test: Liver toxicity in human assessed as induction of drug-induced liver injury by measuring severity class index
For DILI severity class in this document: key of the grades not given here.

Compound | DILI_Concern [1] | DILI_severity_class [2]
CO[C@H]1C[C@@H]2CC[C@@H](C)[C@@](O)(O2)C(=O)C(=O)N2CCCC[C@H]2C(=O)O[C@H]([C@H](C)C[C@@H]2CC[C@@H](OCCO)[C@H](OC)C2)CC(=O)[C@H](C)/C=C(\C)[C@@H](O)[C@@H](OC)C(=O)[C@H](C)C[C@H](C)/C=C/C=C/C=C/1C [EVEROLIMUS] | Ambiguous-Dili-Concern | 4
CNC1=Nc2ccc(Cl)cc2C(c2ccccc2)=[N+]([O-])C1 [CHLORDIAZEPOXIDE] | Less-Dili-Concern | 5
OC(CNCC(O)C1CCc2cc(F)ccc2O1)C1CCc2cc(F)ccc2O1 (centres undefined) [NEBIVOLOL] | Ambiguous-Dili-Concern | 3
CN(C)CC(c1ccc(O)cc1)C1(O)CCCCC1 (centres undefined) [DESVENLAFAXINE] | Less-Dili-Concern | 3
Cc1onc(-c2c(Cl)cccc2Cl)c1C(=O)N[C@@H]1C(=O)N2[C@@H]1SC(C)(C)[C@@H]2C(=O)O [DICLOXACILLIN] | Less-Dili-Concern | 3
O=C(O)c1cc(-c2ccc(F)cc2F)ccc1O [DIFLUNISAL] | Most-Dili-Concern | 8
Nc1ccc(O)c(C(=O)O)c1 [MESALAMINE] | Less-Dili-Concern | 7
O=C(O)CCCO [OXYBATE] | No-Dili-Concern | 0
C=C1CC[C@@]2(O)[C@H]3Cc4ccc(O)c5c4[C@@]2(CCN3CC2CC2)[C@H]1O5.Cl [NALMEFENE HYDROCHLORIDE] | Ambiguous-Dili-Concern | 3
C[C@](N)(Cc1ccc(O)c(O)c1)C(=O)O [METHYLDOPA] | Most-Dili-Concern | 8
CC[C@@H](C(N)=O)N1CCCC1=O | Less-Dili-Concern | 8
CCCCNc1cc(C(=O)O)cc(S(N)(=O)=O)c1Oc1ccccc1 [BUMETANIDE] | Ambiguous-Dili-Concern | 3
NC(=O)OCC(COC(N)=O)c1ccccc1 [FELBAMATE] | Most-Dili-Concern | 7
CCC1(c2ccccc2)C(=O)NC(=O)NC1=O [PHENOBARBITAL] | Less-Dili-Concern | 3
Cc1cn([C@H]2C[C@H](N=[N+]=[N-])[C@@H](CO)O2)c(=O)[nH]c1=O [ZIDOVUDINE] | Most-Dili-Concern | 8
CC(C)(S)[C@@H](N)C(=O)O [PENICILLAMINE] | Less-Dili-Concern | 2
O=P1(N(CCCl)CCCl)NCCCO1 (centres undefined) [CYCLOPHOSPHAMIDE ANHYDROUS] | Less-Dili-Concern | 5
C=CC1=C(C(=O)O)N2C(=O)[C@@H](NC(=O)/C(=N\OCC(=O)O)c3csc(N)n3)[C@H]2SC1 [CEFIXIME] | Ambiguous-Dili-Concern | 4
CCCCCCCCCCC[C@@H](C[C@@H]1OC(=O)[C@H]1CCCCCC)OC(=O)[C@H](CC(C)C)NC=O [ORLISTAT] | Most-Dili-Concern | 8
CCc1cc(C(N)=S)ccn1 [ETHIONAMIDE] | Less-Dili-Concern | 3
O=C1CN(/N=C/c2ccc([N+](=O)[O-])o2)C(=O)N1 [NITROFURANTOIN] | Most-Dili-Concern | 8
CC[C@@H](CO)NC(=O)[C@@H]1C=C2c3cccc4c3c(cn4C)C[C@H]2N(C)C1 [METHYSERGIDE] | No-Dili-Concern | 0
NS(=O)(=O)c1cc2c(cc1C(F)(F)F)NC(Cc1ccccc1)NS2(=O)=O (centres undefined) [BENDROFLUMETHIAZIDE] | Less-Dili-Concern | 5
NCCC(O)(P(=O)(O)O)P(=O)(O)O [PAMIDRONIC ACID] | Ambiguous-Dili-Concern | 3
OCCN1CCN(CCCN2c3ccccc3Sc3ccc(C(F)(F)F)cc32)CC1 [FLUPHENAZINE] | Ambiguous-Dili-Concern | 3
N[C@@H]1[C@H]2CN(c3nc4c(cc3F)c(=O)c(C(=O)O)cn4-c3ccc(F)cc3F)C[C@@H]12 [TROVAFLOXACIN] | Most-Dili-Concern | 8

Compound | DILI_Concern [1] | DILI_severity_class [2]
C[C@H]1COc2c(N3CCN(C)CC3)c(F)cc3c(=O)c(C(=O)O)cn1c23.C[C@H]1COc2c(N3CCN(C)CC3)c(F)cc3c(=O)c(C(=O)O)cn1c23.O [LEVOFLOXACIN] | Most-Dili-Concern | 8
CCCc1nc(C)c2c(=O)[nH]c(-c3cc(S(=O)(=O)N4CCN(CC)CC4)ccc3OCC)nn12 | Ambiguous-Dili-Concern | 3
C[C@@H]1O[C@@H]1P(=O)(O)O [FOSFOMYCIN] | Less-Dili-Concern | 6
COc1cccc2c1[C@@H]1CN(CCCCn3c(=O)[nH]c4c(sc5ncc(-c6ccccc6)nc54)c3=O)C[C@@H]1CO2 [FIDUXOSIN] | Most-Dili-Concern | 8
CC(C)(C)NC(=O)[C@@H]1CN(Cc2cccnc2)CCN1C[C@@H](O)C[C@@H](Cc1ccccc1)C(=O)N[C@H]1c2ccccc2C[C@H]1O.O | Ambiguous-Dili-Concern | 8
CC(C)(N)CO.Cn1c(=O)c2[nH]c(Br)nc2n(C)c1=O [PAMABROM] | No-Dili-Concern | 0
COCCc1ccc(OCC(O)CNC(C)C)cc1.COCCc1ccc(OCC(O)CNC(C)C)cc1.O=C(O)CCC(=O)O (centres undefined) [METOPROLOL SUCCINATE] | Ambiguous-Dili-Concern | 3
C=CC(N)CCC(=O)O (centres undefined) [VIGABATRIN] | Ambiguous-Dili-Concern | 2
Cc1cc2c(cc1CC(=O)c1sccc1S(=O)(=O)Nc1onc(C)c1Cl)OCO2 [SITAXENTAN] | Most-Dili-Concern | 8
enfuvirtide | Ambiguous-Dili-Concern | 3
CCCNC(=O)NS(=O)(=O)c1ccc(Cl)cc1 [CHLORPROPAMIDE] | Less-Dili-Concern | 2
CNC(=C[N+](=O)[O-])NCCSCc1csc(CN(C)C)n1 [NIZATIDINE] | Less-Dili-Concern | 5
CN(C)/N=N/c1[nH]cnc1C(N)=O [DACARBAZINE] | Most-Dili-Concern | 6
COc1cc(C(=O)NCc2ccc(OCCN(C)C)cc2)cc(OC)c1OC [TRIMETHOBENZAMIDE] | Ambiguous-Dili-Concern | 5
CN1CCN(CCCN2c3ccccc3Sc3ccc(Cl)cc32)CC1 [PROCHLORPERAZINE] | Less-Dili-Concern | 2
CCCCN1C(=O)[C@@H]([C@H](O)C2CCCCC2)NC(=O)C12CCN(Cc1ccc(Oc3ccc(C(=O)O)cc3)cc1)CC2 [APLAVIROC] | Most-Dili-Concern | 8
Nc1ccc(C(=O)NCC(=O)O)cc1 [AMINOHIPPURIC ACID] | No-Dili-Concern | 0
C[C@@H]1C[C@H]2[C@@H]3CCC4=CC(=O)C=C[C@]4(C)[C@@]3(F)[C@@H](O)C[C@]2(C)[C@@]1(O)C(=O)CO [DEXAMETHASONE] | Ambiguous-Dili-Concern | 3
C=C1C[C@@H]2[C@H](CC[C@]3(C)C(=O)CC[C@@H]23)[C@@]2(C)C=CC(=O)C=C12 [EXEMESTANE] | Most-Dili-Concern | 4
Cc1ccc(/C(=C\CN2CCCC2)c2ccccn2)cc1 [TRIPROLIDINE] | No-Dili-Concern | 0
Cc1ncc([N+](=O)[O-])n1CCO [METRONIDAZOLE] | Less-Dili-Concern | 3
NCC1(CC(=O)O)CCCCC1 [GABAPENTIN] | Less-Dili-Concern | 3
CN1CC[C@]23CCCC[C@H]2[C@H]1Cc1ccc(O)cc13 [LEVORPHANOL] | No-Dili-Concern | 0
O=c1[nH]cnc2c1ncn2[C@H]1CC[C@@H](CO)O1 [DIDANOSINE] | Most-Dili-Concern | 8
C=CCN1CC[C@]23c4c5ccc(O)c4O[C@H]2C(=O)CC[C@@]3(O)[C@H]1C5 [NALOXONE] | No-Dili-Concern | 0
Fc1ccc([C@@H]2CCNC[C@H]2COc2ccc3c(c2)OCO3)cc1 [PAROXETINE] | Less-Dili-Concern | 8
